Data: PMC9504208, “Comprehensive Study of Antiretroviral Drug Permeability at the Cervicovaginal Mucosa via an In Vitro Model” (Pharmaceutics, 2022)
Where two headings read alike, the source gives them in different places.

Key:
HEC-1A barrier model = assay: Permeability of labelled drug across HEC-1A model on coadministration with a second ARV; assay type: in vitro ADME, human; details: labelled drug 10 µM
Method: All transport experiments were undertaken over a 2-h period (unless stated) at 37 °C in HBSS supplemented with 1% HEPES buffer (Sigma-Aldrich) at pH 7.4 as reported [22]. HBSS was used to prevent the drug from binding to albumin present in cell culture media. All solutions were warmed to 37 °C and experiments were performed on a heated orbital shaker set at 50 RPM. […] Prior to the initiation of the drug transport experiments, TEER was measured. Cell layers were then washed twice with pre-warmed HBSS+1%HEPES transport buffer and equilibrated in the same solution for 30 min at 37 °C. […] The experiment was initiated when either the donor or receiver solutions were added to the respective compartments. Following the addition of donor solution, 20 µL samples were taken immediately from donor and receiver compartments, T = 0 (for assessment of initial concentration and background radioactivity, respectively). Transwells® were then placed on an orbital shaker set at 50 RPM. […] After final sampling, TEER was measured to confirm that there was no disruption to the epithelial barrier during the experimental procedure. Radioactive samples were mixed with 4 mL of scintillation fluid (Fisher Scientific, Waltham, MA, USA) and analysed using a liquid scintillation counter (Beckman Coulter, Brea, CA, USA). […]

HEC-1A cells = assay: Cell-associated drug and distribution between apical and basolateral compartments after absorptive permeability assay; assay type: in vitro ADME, human;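 also: transwell transport run over 2 h at 37 °C, radiolabelled drug quantified by liquid scintillation counting, with insert membranes also counted for mass balance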
Method: (§1) All transport experiments were undertaken over a 2-h period (unless stated) at 37 °C in HBSS supplemented with 1% HEPES buffer (Sigma-Aldrich) at pH 7.4 as reported [22]. HBSS was used to prevent the drug from binding to albumin present in cell culture media. All solutions were warmed to 37 °C and experiments were performed on a heated orbital shaker set at 50 RPM. […] Prior to the initiation of the drug transport experiments, TEER was measured. Cell layers were then washed twice with pre-warmed HBSS+1%HEPES transport buffer and equilibrated in the same solution for 30 min at 37 °C. […] The experiment was initiated when either the donor or receiver solutions were added to the respective compartments. Following the addition of donor solution, 20 µL samples were taken immediately from donor and receiver compartments, T = 0 (for assessment of initial concentration and background radioactivity, respectively). Transwells® were then placed on an orbital shaker set at 50 RPM. Samples, either 200 µL (apical) or 600 µL (basolateral), were taken from the receiver compartments at time points T = 30, T = 60, T = 90 and T = 120 and added to polyethylene liquid scintillation vials. Samples were taken in triplicate and replaced with equivalent volumes of the receiver solution. After final sampling, TEER was measured to confirm that there was no disruption to the epithelial barrier during the experimental procedure. Radioactive samples were mixed with 4 mL of scintillation fluid (Fisher Scientific, Waltham, MA, USA) and analysed using a liquid scintillation counter (Beckman Coulter, Brea, CA, USA). The semipermeable membranes of the Transwell® inserts were cut and also placed into scintillation vials for mass balance measurements.

[1] = as above; assay type: in vitro ADME, human; details: human, pH 7.4; 0.2% Poloxamer in receiver; read-out: Recovery from the apical compartment
Method: as §1

[2] = Bi-directional permeability (Papp) across HEC-1A dual chamber (Transwell) barrier model; assay type: in vitro ADME; details: human, pH 7.4, dapivirine 0.1–10 µM in 1% DMSO, read-out: Absorptive permeability Papp
Method: The apical chambers of 12-well polycarbonate and polyester systems (Corning Costar Corp, Cambridge, UK) were seeded with different densities of HEC-1A cells in 500 µL of the medium while 1500 µL culture medium was added to the basolateral chamber. -Medium in both chambers was changed every 48–72 h.

[3] = ref DrugBank; cited from earlier work

Structure (SMILES): Cc1cc(C)c(Nc2ccnc(Nc3ccc(C#N)cc3)n2)c(C)c1 [dapivirine, Dapivirine]
- Absorptive permeability on coadministration with tenofovir or darunavir (HEC-1A barrier model): not affected
- % Drug Distribution Apical (HEC-1A cells; 0.1 μM): 15.04 ± 0.55%
- % Drug Distribution Basolateral (HEC-1A cells; 0.1 μM): 2.87 ± 0.26%
- % Drug Distribution Cell-Associated (HEC-1A cells; 0.1 μM): 82.10 ± 0.30%
- % Drug Distribution Apical (HEC-1A cells; 0.1 μM + Poloxamer): 16.06 ± 3.26%
- % Drug Distribution Basolateral (HEC-1A cells; 0.1 μM + Poloxamer): 10.56 ± 1.26%
- % Drug Distribution Cell-Associated (HEC-1A cells; 0.1 μM + Poloxamer): 73.37 ± 3.37%
- % Drug Distribution Apical (HEC-1A cells; 1 μM): 14.72 ± 0.10%
- % Drug Distribution Basolateral (HEC-1A cells; 1 μM): 2.13 ± 0.33%
- % Drug Distribution Cell-Associated (HEC-1A cells; 1 μM): 83.15 ± 0.35%
- % Drug Distribution Apical (HEC-1A cells; 1 μM + Poloxamer): 16.47 ± 2.86%
- % Drug Distribution Basolateral (HEC-1A cells; 1 μM + Poloxamer): 11.01 ± 1.41%
- % Drug Distribution Cell-Associated (HEC-1A cells; 1 μM + Poloxamer): 72.51 ± 2.86%
- % Drug Distribution Apical (HEC-1A cells; 5 μM): 14.98 ± 0.76%
- % Drug Distribution Basolateral (HEC-1A cells; 5 μM): 1.86 ± 0.41%
- % Drug Distribution Cell-Associated (HEC-1A cells; 5 μM): 83.16 ± 1.15%
- % Drug Distribution Apical (HEC-1A cells; 5 μM + Poloxamer): 17.47± 2.76%
- % Drug Distribution Basolateral (HEC-1A cells; 5 μM + Poloxamer): 10.78 ± 1.18%
- % Drug Distribution Cell-Associated (HEC-1A cells; 5 μM + Poloxamer): 71.75 ± 2.33%
- % Drug Distribution Apical (HEC-1A cells; 10 μM): 14.52 ± 0.45%
- % Drug Distribution Basolateral (HEC-1A cells; 10 μM): 2.09 ± 0.18%
- % Drug Distribution Cell-Associated (HEC-1A cells; 10 μM): 83.39 ± 0.55%
- % Drug Distribution Apical (HEC-1A cells; 10 μM + Poloxamer): 17.59 ± 3.41%
- % Drug Distribution Basolateral (HEC-1A cells; 10 μM + Poloxamer): 11.72 ± 1.34%
- % Drug Distribution Cell-Associated (HEC-1A cells; 10 μM + Poloxamer): 70.69 ± 2.76%
- Recovery from the apical compartment after absorptive permeability assays (HEC-1A cells; % of initial concentration, no Poloxamer): 15–16%
- recovery at 2 h [1]: 19 to 21%
- Papp A→B at 2 h ([2]; 0.2% (w/v) Poloxamer in basolateral receiver): 9.52 to 11.5 ×10⁻⁶ cm/s
- Papp A→B at 2 h ([2]; no Poloxamer in receiver): 2.5 to 2.61 ×10⁻⁶ cm/s
- logP [3]: 5.6
